The text below walks through data of paper PMC3653934, “Identification of Adiponectin Receptor Agonist Utilizing a Fluorescence Polarization Based High Throughput Assay” (PLoS ONE, 2013).

Like-named read-outs stand apart in the source and are kept apart here. Where a SMILES comes first, the peptide text is derived from it. [ ]: non-standard residue; d: D form. Nva = CCC[C@H](N)C(=O)O

Test [1] concerns AMPK phosphorylation (AdipoR1 signaling) in MDA-MB-231 cells. The test can be described thus: Western blot of AMPK phosphorylation in MDA-MB-231 cells. Type of test: cell-based, human. The conditions noted are these: MDA-MB-231 cells treated at IC50 concentration for 6 h. Here is the method: (§1) Cells were grown to 80% confluence, harvested and aliquoted into 100 mm dishes in serum free media. Cells were allowed to attach overnight and then the serum free media was removed and then cells were washed in PBS twice. Different doses of compounds were prepared in the normal media and added to different dishes for an additional 6 h. Cells were washed 3 times with ice-cold PBS and cell lysates were prepared by scraping cells into lysis buffer A (RIPA buffer, 2 mM dithiothreitol […], 1×Halt protease inhibitor cocktail (Thermo scientific), and 1×Halt phosphatase inhibitor cocktail (Thermo scientific)). The cells were allowed to swell on ice (5 min), after which the homogenate was centrifuged. The supernatants were transferred to fresh tubes and protein concentrations were determined using the Bio-Rad protein assay (Bio-Rad Laboratories, Inc.) per manufacturer’s instructions. Aliquots of the cell lysates were stored at −80°C.
(§2) Equal amounts of total protein (50 µg) were subjected to electrophoresis (10% tris-HCl, 1.0 mm gels) and transferred to nitrocellulose membranes. Membranes were blocked in TBS containing 0.05% Tween 20 (TBST) and 5% nonfat milk or 5% BSA for 1 hour at room temperature. Appropriately diluted primary antibodies were incubated in TBST/5% nonfat milk or TBST/5% BSA for 2 h at room temperature or overnight at 4 °C. Membranes were washed in TBST three times for 15 min each. Appropriately diluted secondary antibodies were incubated in superblock blocking buffers (Thermo Scientific) for 1 h at room temperature. Membranes were washed in TBST three times for 15 min. Proteins were detected by Amersham™ ECL plus western blotting detection system (GE healthcare). The following antibodies were used: anti-AdipoR1 M18, anti-AdipoR2 C12 (Santa Cruz Biotechnology, Santa Cruz, CA), anti-p-AMPKα(T172), anti-AMPKα, and anti-β-actin (Cell Signaling, Danvers, MA).
(§3) It is well established that adiponectin activates AMPK and p38 MAPK through AdipoR1 or PPARα through AdipoR2 to mediate its downstream signaling cascades, [9], [12], [14]. […] The levels of phosphorylation of AMPK and phosphorylation of PPARα were examined and the relative expression levels of the phospho-protein to the total expression of protein levels were quantified using ImageJ software (NIH) ( Fig. 3 ).
(§4) Figure 3 Effects of hit compounds on adiponectin receptor signaling pathways. […] A total 50 µg of cell lysate was loaded to each lane. Western blot was performed follow the protocol in materials and methods section.
Background: A western blot detects proteins with antibodies after separation by electrophoresis.

Test [2] relates to PPARα phosphorylation (AdipoR2 signaling) in MCF-7 cells. The test can be described thus: Western blot of PPARα phosphorylation in MCF-7 cells. Type of test: cell-based, human. The conditions noted are these: MCF-7 cells treated at IC50 concentration for 6 h. The protocol: as §1, §2, §3, §4
The next test concerns MDA-MB-231 cells. The test can be described thus: Cell viability assay (CellTiter-Blue) in MDA-MB-231 cells. The class given is cell-based. The conditions noted are these: Homo sapiens, read-out: IC50 (µM) MDA-MB-231 cells, cell viability. Here is the method:
(§5) All cell lines were obtained from the American Type Culture Collection (ATCC). MCF-7 and MDA-MB-231 cells were maintained in DMEM containing 10% fetal bovine serum and supplied with 1% penicillin/streptomycin. All cells were maintained in a 5% CO2 atmosphere at 37°C.
(§6) The effects of the lead compounds on cell proliferation were tested in MCF-7 and MDA-MB-231 cells. Cells were grown to 80% confluence, harvested and aliquoted into 384-well plates in a total volume of 45 µl per well. The outer wells were inoculated with sterile water to minimize evaporation from the sample wells. Cells were allowed to attach overnight and 5 µl culture media containing either vehicles or drug were added. Cell proliferation was evaluated using CellTilter-Blue reagent (Promega, China) according to manufacturer’s instructions after 72-h incubation. Fluorescence was measured with an excitation at 530 nm and emission at 590 nm. After background subtraction, cell viability values were normalized to vehicle controls and expressed as percentage of the mean of the relative vehicle controls.
(§7) To further confirm the agonistic activity of hit compounds, MDA-MB-231 and MCF-7 cells were treated with different concentrations of g-Ad or drug (20 µM to 1.2 nM) for 72 hours and cell viability was measured. Thus, four compounds (arctiin, (-)-arctigenin, matairesinol and gramine) that show agonistic activity against adiponectin receptor 1 and four compounds (deoxyschizandrin, taxifoliol, syringing and parthenolide) that show agonistic activity against adiponectin receptor 2 were identified.

The subject of another test is MCF-7 cells. The test can be described thus: Cell viability assay (CellTiter-Blue) in MCF-7 cells. The class given is cell-based. The conditions noted are these: Homo sapiens, read-out: IC50 (µM) MCF-7 cells, cell viability. The protocol: as §5, §6, §7
In general terms: Resazurin is reduced to fluorescent resorufin, in cell work by metabolically active cells.

The next test deals with T1, AdipoR1 (Homo sapiens, UniProt Q96A54).
T1 construct: The cDNAs encoding full-length of AdipoR1 or AdipoR2 were then sub-cloned into the mammalian expression vector pBEX and pcDNA3.1–Myc-His(+); His (C); Myc (C); made in house; host or cells: CHO cells
T1 sequence (Q96A54 1-375): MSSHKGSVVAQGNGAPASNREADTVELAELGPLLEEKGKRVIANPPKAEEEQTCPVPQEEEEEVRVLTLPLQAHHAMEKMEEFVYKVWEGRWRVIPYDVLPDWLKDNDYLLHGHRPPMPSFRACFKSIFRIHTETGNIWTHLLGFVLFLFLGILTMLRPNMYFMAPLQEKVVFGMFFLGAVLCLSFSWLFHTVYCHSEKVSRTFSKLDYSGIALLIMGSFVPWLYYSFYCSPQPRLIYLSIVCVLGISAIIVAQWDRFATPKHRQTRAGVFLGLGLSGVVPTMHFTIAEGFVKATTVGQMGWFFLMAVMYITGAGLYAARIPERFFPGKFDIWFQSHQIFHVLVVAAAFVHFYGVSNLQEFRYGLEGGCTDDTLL
The test can be described thus: Competitive FP assay, displacement of probe 1 from AdipoR1. The class given is binding. The protocol:
(§8) Unlabeled short peptide 3 was titrated against the FITC-labeled peptide and adiponectin receptor mixture. Plates were incubated at room temperature for up to 3 hours or 30 min at different temperatures. FP values were taken and IC50 values were calculated.
(§9) Master mixtures containing fluorescein-labeled probe 1 and adiponectin receptor (AdipoR1 or AdiopR2, 2 µM and probe 1 at 100 nM) in a reaction volume of 19 µl were prepared and loaded to plates. The library compounds (10 µM –0.078 µM, half dilutions) were prepared separately and transferred into the assay plates. The first and last columns of each plate were used as positive and negative control wells. Wells containing the drug only were used as controls to detect auto-fluorescence of the compounds in the total fluorescence assay. After subtraction of the background signal, data was processed and the IC50 values were determined by non-linear least square fitting using SigmaPlot 11.0.
(§10) Given that the present study is a screening study, peptide 3 was chosen as the positive control for cost-efficiency purposes.
(§11) To optimize the FP assay properly, it was necessary to assess the stability of the FP assay. The conditions for the FP assay were established by testing various parameters including incubation temperature, time, TF values, ΔmP values, and DMSO tolerance. […] In summary, the competitive FP binding assay conditions ideal for identifying adiponectin receptor agonists are: i) 2 µM adiponectin receptor, ii) 100 nM probe 1, iii) 5% final DMSO concentration (v/v), and iv) incubation for 30 min at 25°C before reading the plate.
(§12) A pilot screen against the natural product library of 10,000 compounds described above was performed at screening concentrations of 10 µM to 0.078 µM (half serial dilutions) in 5% DMSO (v/v). Controls present in each assay plate consisted of 5% DMSO (negative control) or peptide 3 (positive control).
(§13) We screened a library of 10,000 natural compounds for adiponectin agonists. […] 46 compounds that could generate IC50 curves were identified as initial hits.

For the next test, the target named is T2, AdipoR2 (UniProt Q86V24).
T2 sequence (Q86V24 1-386): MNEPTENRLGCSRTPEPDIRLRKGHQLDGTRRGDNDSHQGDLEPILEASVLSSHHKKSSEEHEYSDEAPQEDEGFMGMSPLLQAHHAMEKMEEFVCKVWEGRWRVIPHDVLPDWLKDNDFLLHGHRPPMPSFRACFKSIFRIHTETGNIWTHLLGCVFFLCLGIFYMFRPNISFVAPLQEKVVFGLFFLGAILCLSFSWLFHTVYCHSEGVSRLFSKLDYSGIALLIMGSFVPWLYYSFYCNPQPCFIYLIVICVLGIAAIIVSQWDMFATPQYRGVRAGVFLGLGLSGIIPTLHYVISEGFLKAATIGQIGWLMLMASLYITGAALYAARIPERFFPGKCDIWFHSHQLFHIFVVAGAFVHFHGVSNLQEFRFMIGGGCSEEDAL
In words: Competitive FP assay, displacement of probe 1 from AdipoR2. The class given is binding, human. The protocol: as §8, §9, §10, §11, §12, §13

Setting [3] is: primary screen, 2 µM receptor, 100 nM probe 1, 30 min, 25°C, read-out: IC50 vs AdipoR1 (µM) Primary screen.
Setting [4] is: validation, 2 µM receptor, 100 nM probe 1, 30 min, 25°C, read-out: IC50 vs AdipoR1 (µM) Validated.
Where [5] appears, read: primary screen, 2 µM receptor, 100 nM probe 1, 30 min, 25°C, read-out: IC50 vs AdipoR2 (µM) Primary screen.
Where [6] appears, read: validation, 2 µM receptor, 100 nM probe 1, 30 min, 25°C, read-out: IC50 vs AdipoR2 (µM) Validated.

Turning to `O=C1c2c(O)cc(O)cc2O[C@H](c2ccc(O)c(O)c2)[C@H]1O` [Compound 6, Taxifoliol], the “Effect on AMPK phosphorylation” value in test [1] is listed as “decreased”. The “Effect on PPARα phosphorylation level” value in test [2] is reported as “increased”. For the same molecule, the half-maximal inhibitory concentration (IC50) (commonly the concentration needed to halve the response being measured) is more than 10 µM with MDA-MB-231 cells (MDA-MB-231, 72 h, 20 µM to 1.2 nM) and 4.4 ± 0.5 µM with MCF-7 cells (MCF7, 72 h, 20 µM to 1.2 nM).

`COc1cc(C[C@H]2C(=O)OC[C@@H]2Cc2ccc(OC)c(OC)c2)ccc1O` [Compound 2, (-)-Arctigenin]: the IC50 was 2.6 µM on AdipoR1 (setting [3]); 2.2 ± 0.8 µM at AdipoR1 (setting [4]); more than 5 µM on AdipoR2 (setting [5]); more than 5 µM on AdipoR2 (setting [6]); 4.5 ± 0.4 µM with MDA-MB-231 cells (MDA-MB-231, 72 h); more than 10 µM with MCF-7 cells (MCF7, 72 h). Besides, the “Effect on AMPK phosphorylation” value in test [1] is “elevated”. Besides, in test [2], the “Effect on PPARα phosphorylation level” value is “inhibited”.

With `O=c1cc(-c2ccccc2)oc2cc(O)cc(O)c12` [Compound 8, Chrysin], the IC50 on AdipoR1 (setting [3]) is more than 5 µM; on AdipoR1 (setting [4]), more than 5 µM; at AdipoR2 (read-out: IC50 vs AdipoR2 (µM) Primary screen, primary screen, 2 µM receptor, 100 nM probe 1, 30 min, 25°C), 4.9 µM; on AdipoR2 (read-out: IC50 vs AdipoR2 (µM) Validated, validation, 2 µM receptor, 100 nM probe 1, 30 min, 25°C), more than 5 µM. At AdipoR2 (validation, 2 µM receptor, 100 nM probe 1, 30 min, 25°C), the “IC50 vs AdipoR2 (µM) Validated” value is recorded as “failed in the validation”.

`COc1cc(/C=C/CO)cc(OC)c1O[C@@H]1O[C@H](CO)[C@@H](O)[C@H](O)[C@H]1O` [Compound 5, Syringin]: the IC50 was more than 5 µM at AdipoR1; more than 5 µM on AdipoR1 (read-out: IC50 vs AdipoR1 (µM) Validated, validation, 2 µM receptor, 100 nM probe 1, 30 min, 25°C); 4.6 µM on AdipoR2 (setting [5]); 4.5 ± 0.5 µM at AdipoR2 (setting [6]); more than 10 µM with MDA-MB-231 cells (MDA-MB-231, 72 h); 6.8 ± 0.8 µM in the test on MCF-7 cells (MCF7, 72 h). Further, in test [1], the “Effect on AMPK phosphorylation” value was “decreased”. Further, the “Effect on PPARα phosphorylation level” value in test [2] is listed as “increased”.

With `CCC[C@H](NC(=O)[C@@H]1CCCN1C(=O)[C@@H](NC(=O)[C@H](N)CC(N)=O)[C@@H](C)CC)C(=O)N[C@@H](CC(C)C)C(=O)N[C@@H](Cc1ccc(O)cc1)C(=O)N[C@H](CO)C(=O)N[C@@H](Cc1ccccc1)C(=O)N[C@@H](C)C(=O)N[C@H](CO)C(N)=O` [Peptide 3, H-DAsn-Ile-Pro-Nva-Leu-Tyr-DSer-Phe-Ala-DSer-NH2, reference compound] (H-[dN]IP[Nva]LY[dS]FA[dS]-NH2), the 50% inhibitory concentration (IC50) on AdipoR2 (positive control validation, titrated against probe 1 – AdipoR2 mixture, read-out: IC50 against AdipoR2, competition with probe 1) came out at 2.46 ± 0.25 µM.

B1: g-Ad: recombinant carboxyl-terminal globular domain of adiponectin with C-terminal His-tag, produced in BL21(DE3) cells; positive control (protein)
chain: GEGAYVYRSAFSVGLETYVTIPNMPIRFTKIFYNQQNHYDGSTGKFHCNIPGLYYFAYHITVYMKDVKVSLFKKDKAMLFTYDQYQENNVDQASGSVLLHLEVGDQVWLQVYGEGERNGLYADNDNDSTFTGFLLYHDTN
modifications: C-terminal His-tag left out
On to B1, for which the IC50 in the test with AdipoR1 (positive control validation, titrated against probe 1 – AdipoR1 mixture, read-out: IC50 against AdipoR1, competition with probe 1) is 3.4 ± 0.7 µM.
